Eleven compounds from ChEMBL document CHEMBL5465560, “Selectivity Literature for EUbOPEN Chemogenomic Library” (2024) can be followed below.

For assay [1], the target named is Maternal embryonic leucine zipper kinase (Homo sapiens) (UniProt Q14680). Briefly: Selectivity interaction (KinomeScan (DiscoverX)) EUB0000595a MELK. As to conditions: at 10 µM.
The target in assay [2] is Vascular endothelial growth factor receptor 2 (Homo sapiens, UniProt P35968). Briefly: Selectivity interaction (KinomeScan (DiscoverX)) EUB0000695a KDR. As to conditions: at 100 nM.
Assay [3] addresses Protein-tyrosine kinase 6 (Homo sapiens, UniProt Q13882). Briefly: Selectivity interaction (KinaseProfiler screening (Millipore)) EUB0000601a PTK6. As to conditions: at 3 µM.
Assay [4] deals with T1, Mitogen-activated protein kinase kinase kinase 2 (Homo sapiens) (UniProt Q9Y2U5).
T1 sequence (whole entry): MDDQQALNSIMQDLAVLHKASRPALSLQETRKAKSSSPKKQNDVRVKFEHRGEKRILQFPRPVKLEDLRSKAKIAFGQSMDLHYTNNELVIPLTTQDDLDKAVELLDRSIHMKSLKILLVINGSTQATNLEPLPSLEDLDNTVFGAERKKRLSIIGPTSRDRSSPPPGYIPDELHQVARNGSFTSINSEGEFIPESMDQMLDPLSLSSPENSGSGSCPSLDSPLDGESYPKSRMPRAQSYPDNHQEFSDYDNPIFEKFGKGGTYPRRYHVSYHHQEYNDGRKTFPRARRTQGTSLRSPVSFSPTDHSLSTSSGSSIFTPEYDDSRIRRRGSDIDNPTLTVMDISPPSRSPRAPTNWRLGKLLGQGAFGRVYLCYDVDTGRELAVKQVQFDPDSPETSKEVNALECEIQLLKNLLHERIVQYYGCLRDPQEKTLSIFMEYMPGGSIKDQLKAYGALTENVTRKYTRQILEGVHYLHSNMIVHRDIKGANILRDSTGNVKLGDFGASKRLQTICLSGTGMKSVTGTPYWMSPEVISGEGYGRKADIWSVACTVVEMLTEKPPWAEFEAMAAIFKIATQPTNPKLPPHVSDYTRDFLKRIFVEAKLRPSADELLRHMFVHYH
Briefly: Selectivity interaction (Kinase panel (Invitrogen)) EUB0000639a MAP3K2. As to conditions: at 200 nM.

Assay [5] concerns the target Serine/threonine-protein kinase 35 (Homo sapiens) (UniProt Q8TDR2). Briefly: Selectivity interaction (KinomeScan (DiscoverX)) EUB0000045b STK35.
Assay [6] addresses Casein kinase I isoform gamma-1 (Homo sapiens) (UniProt Q9HCP0). Put plainly: Selectivity interaction (ProQinase) EUB0000171b CSNK1G1.
In assay [7] the target is Serine/threonine-protein kinase 38 (Homo sapiens) (UniProt Q15208). Briefly: Selectivity interaction (KinomeScan (DiscoverX)) EUB0000655a STK38. Conditions: at 10 µM.
Assay [8] has as its target Cyclin-dependent kinase 16 (Homo sapiens) (UniProt Q00536). Put plainly: Selectivity interaction (KinomeScan (DiscoverX)) EUB0000618a CDK16. As to conditions: at 10 µM.
Assay [9] addresses Receptor tyrosine-protein kinase erbB-4 (Homo sapiens, UniProt Q15303). Put plainly: Selectivity interaction (KinomeScan (DiscoverX)) EUB0000092b ERBB4. As to conditions: at 10 µM.
For assay [10], the target named is T2, Serine/threonine-protein kinase D1 (Homo sapiens) (UniProt Q15139).
T2 sequence (whole entry): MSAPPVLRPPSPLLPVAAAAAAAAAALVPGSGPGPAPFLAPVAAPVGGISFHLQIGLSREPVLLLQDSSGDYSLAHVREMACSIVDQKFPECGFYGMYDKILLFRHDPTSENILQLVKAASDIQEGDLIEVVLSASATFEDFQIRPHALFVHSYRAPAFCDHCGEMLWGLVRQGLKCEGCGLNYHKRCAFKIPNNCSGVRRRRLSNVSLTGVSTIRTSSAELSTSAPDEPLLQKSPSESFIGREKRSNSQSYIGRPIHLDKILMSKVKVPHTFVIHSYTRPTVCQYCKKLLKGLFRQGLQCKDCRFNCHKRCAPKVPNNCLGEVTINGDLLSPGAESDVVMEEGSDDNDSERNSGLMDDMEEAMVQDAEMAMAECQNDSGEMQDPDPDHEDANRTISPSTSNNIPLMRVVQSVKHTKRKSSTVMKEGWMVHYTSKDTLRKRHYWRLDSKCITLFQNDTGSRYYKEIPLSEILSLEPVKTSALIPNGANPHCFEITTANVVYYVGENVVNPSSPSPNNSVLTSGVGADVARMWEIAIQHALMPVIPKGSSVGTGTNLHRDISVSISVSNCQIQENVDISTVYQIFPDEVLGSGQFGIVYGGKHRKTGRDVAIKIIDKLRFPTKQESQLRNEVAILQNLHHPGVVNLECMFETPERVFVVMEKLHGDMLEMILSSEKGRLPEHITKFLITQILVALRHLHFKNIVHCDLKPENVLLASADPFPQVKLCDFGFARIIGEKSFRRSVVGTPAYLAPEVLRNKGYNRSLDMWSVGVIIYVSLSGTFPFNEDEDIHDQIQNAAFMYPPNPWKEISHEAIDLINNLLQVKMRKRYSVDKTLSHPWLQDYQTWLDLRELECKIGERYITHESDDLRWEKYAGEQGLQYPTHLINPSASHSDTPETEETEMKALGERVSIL
Put plainly: Selectivity interaction (KinomeScan (DiscoverX)) EUB0001079a PRKD1. As to conditions: at 1 µM.

Assay [11] concerns the target T3, Serine/threonine-protein kinase DCLK2 (Homo sapiens) (UniProt Q8N568).
T3 sequence (whole entry): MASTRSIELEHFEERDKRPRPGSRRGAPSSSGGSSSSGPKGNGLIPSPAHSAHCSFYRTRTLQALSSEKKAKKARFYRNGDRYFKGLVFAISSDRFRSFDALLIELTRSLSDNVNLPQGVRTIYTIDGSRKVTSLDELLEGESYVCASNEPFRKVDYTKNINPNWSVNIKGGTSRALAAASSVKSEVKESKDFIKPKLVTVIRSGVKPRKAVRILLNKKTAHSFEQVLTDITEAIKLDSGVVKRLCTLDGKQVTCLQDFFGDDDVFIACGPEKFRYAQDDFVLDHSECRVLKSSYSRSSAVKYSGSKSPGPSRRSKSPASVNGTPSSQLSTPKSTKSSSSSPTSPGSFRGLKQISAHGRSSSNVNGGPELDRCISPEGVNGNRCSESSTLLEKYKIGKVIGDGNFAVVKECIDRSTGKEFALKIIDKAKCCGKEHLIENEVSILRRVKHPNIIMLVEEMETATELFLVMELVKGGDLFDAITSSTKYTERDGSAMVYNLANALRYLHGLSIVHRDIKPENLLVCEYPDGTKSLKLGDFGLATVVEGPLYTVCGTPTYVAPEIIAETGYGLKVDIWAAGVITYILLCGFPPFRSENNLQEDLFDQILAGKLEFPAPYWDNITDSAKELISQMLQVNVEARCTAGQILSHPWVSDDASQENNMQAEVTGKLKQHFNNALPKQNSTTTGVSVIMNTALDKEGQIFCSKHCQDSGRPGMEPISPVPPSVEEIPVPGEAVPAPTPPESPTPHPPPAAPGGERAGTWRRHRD
Briefly: Selectivity interaction (KinomeScan (DiscoverX)) EUB0000229b DCLK2. Conditions: at 10 µM.

SMILES strings stand for the structures.

Sequence of Serine/threonine-protein kinase 35 (Homo sapiens) (Q8TDR2 whole entry, canonical isoform): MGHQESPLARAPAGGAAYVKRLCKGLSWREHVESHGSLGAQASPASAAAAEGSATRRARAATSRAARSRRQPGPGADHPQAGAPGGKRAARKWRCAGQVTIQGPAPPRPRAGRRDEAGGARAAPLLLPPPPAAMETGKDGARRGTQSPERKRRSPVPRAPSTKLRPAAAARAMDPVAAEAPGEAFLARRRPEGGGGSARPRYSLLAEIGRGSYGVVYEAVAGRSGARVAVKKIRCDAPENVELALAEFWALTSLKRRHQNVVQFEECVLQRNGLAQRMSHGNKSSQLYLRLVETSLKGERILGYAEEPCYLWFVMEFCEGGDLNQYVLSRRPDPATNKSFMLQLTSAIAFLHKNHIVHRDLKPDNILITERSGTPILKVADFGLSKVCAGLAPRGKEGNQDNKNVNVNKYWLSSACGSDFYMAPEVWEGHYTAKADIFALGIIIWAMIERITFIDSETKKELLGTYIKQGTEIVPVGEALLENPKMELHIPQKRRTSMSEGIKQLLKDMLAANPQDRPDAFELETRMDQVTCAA
Sequence of Casein kinase I isoform gamma-1 (Homo sapiens) (Q9HCP0 whole entry, looked up, canonical isoform): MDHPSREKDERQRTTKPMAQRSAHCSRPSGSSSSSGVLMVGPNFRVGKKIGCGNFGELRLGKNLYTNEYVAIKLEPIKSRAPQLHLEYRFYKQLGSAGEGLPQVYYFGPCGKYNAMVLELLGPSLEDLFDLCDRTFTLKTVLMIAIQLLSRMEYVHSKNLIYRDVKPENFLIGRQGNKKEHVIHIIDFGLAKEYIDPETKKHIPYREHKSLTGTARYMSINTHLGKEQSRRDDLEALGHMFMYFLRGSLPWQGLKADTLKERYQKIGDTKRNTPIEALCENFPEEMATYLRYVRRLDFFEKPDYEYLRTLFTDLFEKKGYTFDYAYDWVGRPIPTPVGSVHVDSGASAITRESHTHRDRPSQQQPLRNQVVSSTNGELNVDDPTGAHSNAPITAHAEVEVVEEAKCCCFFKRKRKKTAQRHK
Sequence of Receptor tyrosine-protein kinase erbB-4 (Q15303 whole entry): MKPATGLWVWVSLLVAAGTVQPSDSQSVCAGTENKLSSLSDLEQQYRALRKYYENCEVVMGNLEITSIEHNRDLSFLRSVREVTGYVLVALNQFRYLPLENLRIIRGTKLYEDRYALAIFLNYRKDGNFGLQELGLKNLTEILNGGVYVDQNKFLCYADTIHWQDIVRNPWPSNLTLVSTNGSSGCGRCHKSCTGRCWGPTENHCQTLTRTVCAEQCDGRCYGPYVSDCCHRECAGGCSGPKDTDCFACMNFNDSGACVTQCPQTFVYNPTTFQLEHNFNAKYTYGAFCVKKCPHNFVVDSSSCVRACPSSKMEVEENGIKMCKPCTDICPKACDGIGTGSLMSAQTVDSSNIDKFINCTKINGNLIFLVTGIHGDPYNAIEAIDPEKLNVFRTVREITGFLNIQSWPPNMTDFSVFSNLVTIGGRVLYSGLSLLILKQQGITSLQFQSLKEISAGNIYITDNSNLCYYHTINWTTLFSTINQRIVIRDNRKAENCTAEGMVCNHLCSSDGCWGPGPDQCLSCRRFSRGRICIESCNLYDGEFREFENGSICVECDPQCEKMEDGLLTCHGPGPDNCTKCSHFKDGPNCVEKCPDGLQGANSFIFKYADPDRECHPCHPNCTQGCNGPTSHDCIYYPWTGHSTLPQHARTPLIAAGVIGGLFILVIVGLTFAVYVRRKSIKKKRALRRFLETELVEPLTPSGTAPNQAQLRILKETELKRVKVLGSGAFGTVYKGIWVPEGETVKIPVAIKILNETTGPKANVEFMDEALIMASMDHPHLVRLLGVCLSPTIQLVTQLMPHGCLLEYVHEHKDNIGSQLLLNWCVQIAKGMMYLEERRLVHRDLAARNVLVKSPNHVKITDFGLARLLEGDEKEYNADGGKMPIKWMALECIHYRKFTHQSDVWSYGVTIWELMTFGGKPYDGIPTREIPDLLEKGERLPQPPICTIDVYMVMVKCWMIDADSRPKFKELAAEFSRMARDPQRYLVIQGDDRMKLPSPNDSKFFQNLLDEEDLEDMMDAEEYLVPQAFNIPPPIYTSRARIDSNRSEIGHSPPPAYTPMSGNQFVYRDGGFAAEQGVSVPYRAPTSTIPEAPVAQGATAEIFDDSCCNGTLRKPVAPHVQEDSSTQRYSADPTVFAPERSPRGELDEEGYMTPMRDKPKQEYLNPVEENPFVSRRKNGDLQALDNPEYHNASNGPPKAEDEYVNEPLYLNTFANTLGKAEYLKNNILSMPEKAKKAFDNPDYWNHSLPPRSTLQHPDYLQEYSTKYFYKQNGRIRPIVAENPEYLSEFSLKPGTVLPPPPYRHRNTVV
Sequence of Vascular endothelial growth factor receptor 2 (P35968 whole entry): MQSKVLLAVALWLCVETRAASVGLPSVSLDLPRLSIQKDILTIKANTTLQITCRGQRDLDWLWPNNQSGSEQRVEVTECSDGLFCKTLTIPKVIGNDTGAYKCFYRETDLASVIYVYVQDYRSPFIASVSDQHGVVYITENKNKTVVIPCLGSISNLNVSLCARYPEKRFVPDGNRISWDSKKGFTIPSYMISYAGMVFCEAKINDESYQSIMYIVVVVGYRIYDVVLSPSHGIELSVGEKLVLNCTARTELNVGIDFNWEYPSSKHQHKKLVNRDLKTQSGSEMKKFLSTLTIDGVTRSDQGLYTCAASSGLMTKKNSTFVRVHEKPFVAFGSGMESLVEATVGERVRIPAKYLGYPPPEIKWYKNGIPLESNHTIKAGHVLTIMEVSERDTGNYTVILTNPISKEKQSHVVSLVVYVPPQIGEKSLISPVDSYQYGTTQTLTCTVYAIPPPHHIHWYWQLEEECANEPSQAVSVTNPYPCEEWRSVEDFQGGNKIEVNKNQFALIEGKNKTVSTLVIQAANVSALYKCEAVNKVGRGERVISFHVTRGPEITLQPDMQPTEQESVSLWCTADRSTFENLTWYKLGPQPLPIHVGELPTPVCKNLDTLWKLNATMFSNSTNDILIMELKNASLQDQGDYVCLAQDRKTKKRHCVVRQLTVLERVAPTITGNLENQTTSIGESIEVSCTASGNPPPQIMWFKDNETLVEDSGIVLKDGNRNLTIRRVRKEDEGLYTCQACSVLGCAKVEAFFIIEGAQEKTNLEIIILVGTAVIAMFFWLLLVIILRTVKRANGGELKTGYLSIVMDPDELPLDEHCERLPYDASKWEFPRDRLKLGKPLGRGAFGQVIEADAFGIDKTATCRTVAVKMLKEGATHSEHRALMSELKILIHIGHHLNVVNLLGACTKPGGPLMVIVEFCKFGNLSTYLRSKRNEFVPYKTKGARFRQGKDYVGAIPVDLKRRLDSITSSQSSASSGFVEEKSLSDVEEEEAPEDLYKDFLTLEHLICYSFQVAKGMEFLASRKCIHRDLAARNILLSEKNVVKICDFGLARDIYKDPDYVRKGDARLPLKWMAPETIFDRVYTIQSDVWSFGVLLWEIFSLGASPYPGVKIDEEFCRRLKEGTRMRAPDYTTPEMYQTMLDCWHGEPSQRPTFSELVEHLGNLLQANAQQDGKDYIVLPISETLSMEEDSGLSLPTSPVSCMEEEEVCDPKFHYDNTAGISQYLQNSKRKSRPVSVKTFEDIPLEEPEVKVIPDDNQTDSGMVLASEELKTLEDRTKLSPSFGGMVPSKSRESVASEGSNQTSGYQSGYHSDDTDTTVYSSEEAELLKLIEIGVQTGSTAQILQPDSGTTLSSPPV
Sequence of Serine/threonine-protein kinase 38 (Homo sapiens) (Q15208 2-465 limits assumed): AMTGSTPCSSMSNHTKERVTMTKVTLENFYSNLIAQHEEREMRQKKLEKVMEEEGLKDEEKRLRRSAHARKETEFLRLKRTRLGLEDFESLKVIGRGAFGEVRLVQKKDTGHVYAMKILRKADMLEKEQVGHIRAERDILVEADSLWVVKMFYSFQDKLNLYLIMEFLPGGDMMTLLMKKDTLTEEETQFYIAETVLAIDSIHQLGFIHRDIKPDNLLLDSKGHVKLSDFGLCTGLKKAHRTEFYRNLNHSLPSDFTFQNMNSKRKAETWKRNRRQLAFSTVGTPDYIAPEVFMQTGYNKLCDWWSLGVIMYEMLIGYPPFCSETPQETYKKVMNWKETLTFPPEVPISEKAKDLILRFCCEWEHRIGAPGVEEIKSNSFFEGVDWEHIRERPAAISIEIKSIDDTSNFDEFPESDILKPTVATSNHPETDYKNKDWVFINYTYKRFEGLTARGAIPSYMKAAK
Sequence of Maternal embryonic leucine zipper kinase (Homo sapiens) (Q14680 whole entry, looked up): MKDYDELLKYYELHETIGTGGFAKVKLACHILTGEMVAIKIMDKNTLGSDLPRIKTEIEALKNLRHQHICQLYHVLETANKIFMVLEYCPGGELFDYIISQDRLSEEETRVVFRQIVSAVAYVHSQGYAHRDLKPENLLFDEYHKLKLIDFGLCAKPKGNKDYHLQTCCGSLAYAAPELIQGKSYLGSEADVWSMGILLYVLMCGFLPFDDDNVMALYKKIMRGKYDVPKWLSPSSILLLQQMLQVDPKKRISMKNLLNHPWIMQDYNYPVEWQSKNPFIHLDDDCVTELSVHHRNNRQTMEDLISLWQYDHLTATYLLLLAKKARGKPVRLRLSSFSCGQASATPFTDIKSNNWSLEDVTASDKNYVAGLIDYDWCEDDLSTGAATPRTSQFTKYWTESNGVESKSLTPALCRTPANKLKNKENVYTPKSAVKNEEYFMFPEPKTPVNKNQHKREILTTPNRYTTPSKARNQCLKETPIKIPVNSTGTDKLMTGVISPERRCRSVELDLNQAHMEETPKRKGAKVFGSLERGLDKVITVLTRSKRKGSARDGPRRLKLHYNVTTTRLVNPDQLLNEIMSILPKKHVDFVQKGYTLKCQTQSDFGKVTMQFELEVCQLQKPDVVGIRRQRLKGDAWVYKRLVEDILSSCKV

With `COCC(=O)NC/C=C/c1ccc2ncnc(Nc3ccc(Oc4ccc(C)nc4)c(C)c3)c2c1` [CP-724714], in assay [1], the % of control is 92%.

Take `Cc1cc(F)c(C(=O)Nc2cccc(-c3nncn3C(C)C)n2)cc1-n1cnc(C2CC2)c1`: in assay [2], the % of control came to 100%.

For the compound `CCc1cc(Nc2nccc(-c3c(-c4ccc(OC)c(C(=O)Nc5c(F)cccc5F)c4)nc4ccccn34)n2)c(OC)cc1N1CCC(N2CCN(S(C)(=O)=O)CC2)CC1`, the % of inhibition in assay [3] came out at 65%.

Regarding `CC[C@@H]1[C@H](F)C(=O)N[C@@H]1COc1nccc2cc(C(N)=O)c(OC)cc12` [ZIMLOVISERTIB], the % of inhibition in assay [4] was -4.03%.

As to `C=CC(=O)Nc1cc(-n2c(=O)ccc3cnc4ccc(-c5ccc(NS(C)(=O)=O)cc5)cc4c32)ccc1C`, the % of control in assay [5] (at 1 µM) and in assay [5] (at 10 µM) was 100% in each case.

As for `C=CC(=O)Nc1cccc(C(=O)Nc2ccc(Nc3cc(-c4[nH]c(SC)nc4C)ccn3)cc2)c1`, the % of control is 65% in assay [6] (at 1 µM) and 31% in [6] (at 5 µM).

In turn, `CN(C)CCOc1ccc(-c2nc(-c3ccncc3)c(-c3ccc4c(c3)CC/C4=N\O)[nH]2)cc1` had a % of control in assay [7] of 90%.

Compound `O[C@H]1CC[C@H](Nc2ncc3nc(Nc4c(F)cc(F)cc4F)n([C@H]4CCOC4)c3n2)CC1` returned a % of control in [8] of 100%.

For the compound `CCC(=O)N1CCN(c2ccc(-n3c(=O)ccc4cnc5ccc(-c6cnc7ccccc7c6)cc5c43)cc2C(F)(F)F)CC1`, in assay [9], the % of control amounted to 100%.

`Nc1cnc(N2CCc3cc(S(=O)(=O)Nc4c(F)cc(Cl)cc4F)cc(N4CCCC4=O)c32)nc1` [TP-020n]: the % of control in assay [10] stood at 83%.

In assay [11], `COc1cc(N(C)c2ccnc3ccc(C(F)(F)F)cc23)cc(OC)c1OC` registered a % binding of 100%.
